Several values for one entry are separate records, joined by “and”; a condition that tells them apart may be missing. Equal entries are not always repeated. Toxic doses and inconclusive results are not listed. The calls were made as follows: active = survival T/C of 150% or more; inactive = T/C below 125% in these data.
System: BDF1 mice, L1210/MTX-resistant leukemia ip, survival T/C
Test: NCI In Vivo Anticancer Drug Screen. Data for tumor model L1210 Leukemia resistant to Methotrexate; NSC 740 (intraperitoneal) in B6D2F1 (BDF1) mice
Settings: endpoint: mean survival time, higher = longer survival
Protocol: The antitumor activity of compounds was measured in mice bearing transplantable tumors. Survival or tumor size were measured and the results are expressed as the measurement made in the treated group (T) divided by the measurement made in the vehicle treated control group (C). The tumor model used in this assay is L1210 Leukemia resistant to Methotrexate; NSC 740 (intraperitoneal) in B6D2F1 (BDF1) mice

[1] = dose: 6.25 mg/kg/injection, schedule: Q01DX Z (ip), vehicle: carboxymethylcellulose (CMC)
[2] = dose: 12.5 mg/kg/injection, schedule: Q01DX Z (ip), vehicle: carboxymethylcellulose (CMC)
[3] = dose: 25.0 mg/kg/injection, schedule: Q01DX Z (ip), vehicle: carboxymethylcellulose (CMC)
[4] = dose: 50.0 mg/kg/injection, schedule: Q01DX Z (ip), vehicle: carboxymethylcellulose (CMC)

Measured: T/C

Cn1c(N)nc2nc[nH]c2c1=S
inactive: [1] 108 % of control | dose: 10.0 mg/kg/injection, schedule: Q01DX010 (ip), vehicle: saline 98 % of control | [2] 90 % of control | dose: 20.0 mg/kg/injection, schedule: Q01DX010 (ip), vehicle: saline 95 % of control | [3] 104 % of control | dose: 40.0 mg/kg/injection, schedule: Q01DX010 (ip), vehicle: saline 97 % of control | [4] 119 % of control | dose: 80.0 mg/kg/injection, schedule: Q01DX010 (ip), vehicle: saline 115 % of control

C[C@]12C=CC(=O)C=C1CC[C@@H]1[C@@H]2[C@@H](O)C[C@@]2(C)[C@H]1CC[C@]2(O)C(=O)CO
inactive: dose: 12.5 mg/kg/injection, schedule: Q01DX010 (sc), vehicle: steriod suspending solution 88 % of control | dose: 25.0 mg/kg/injection, schedule: Q01DX010 (sc), vehicle: steriod suspending solution 99 % of control | dose: 50.0 mg/kg/injection, schedule: Q01DX010 (sc), vehicle: steriod suspending solution 86 % of control | dose: 100.0 mg/kg/injection, schedule: Q01DX010 (sc), vehicle: steriod suspending solution 90 % of control

Nc1nc(SCc2ccccc2)c2[nH]cnc2n1
inactive: [1] 121 % of control | dose: 8.0 mg/kg/injection, schedule: Q01DX010 (ip), vehicle: saline 105 % of control | [2] 114 % of control | dose: 16.0 mg/kg/injection, schedule: Q01DX010 (ip), vehicle: saline 120 % of control | [3] 107 % of control | [4] 105 % of control | dose: 62.5 mg/kg/injection, schedule: Q01DX Z (ip), vehicle: carboxymethylcellulose (CMC) 95 % of control | dose: 64.0 mg/kg/injection, schedule: Q01DX010 (ip), vehicle: saline 96 % of control

CS(=O)(=O)OCCCCOS(C)(=O)=O
inactive: dose: 0.38 mg/kg/injection, schedule: Q01DX Z (ip), vehicle: methylcellulose (MC) 88 % of control and 105 % of control | dose: 0.75 mg/kg/injection, schedule: Q01DX Z (ip), vehicle: methylcellulose (MC) 93 % of control and 97 % of control | dose: 6.25 mg/kg/injection, schedule: Q01DX010 (ip), vehicle: saline 97 % of control | dose: 12.5 mg/kg/injection, schedule: Q01DX010 (ip), vehicle: saline 92 % of control and 93 % of control | [2] 106 % of control | dose: 25.0 mg/kg/injection, schedule: Q01DX010 (ip), vehicle: saline 91 % of control | dose: 50.0 mg/kg/injection, schedule: Q01DX010 (ip), vehicle: saline 102 % of control

CCC(=O)O[C@H]1CC[C@H]2[C@@H]3CCC4=CC(=O)CC[C@]4(C)[C@H]3CC[C@]12C
inactive: dose: 125.0 mg/kg/injection, schedule: Q01DX Z (sc), vehicle: steriod suspending solution 100 % of control and 102 % of control | dose: 250.0 mg/kg/injection, schedule: Q01DX Z (sc), vehicle: steriod suspending solution 102 % of control | dose: 1000.0 mg/kg/injection, schedule: Q01DX Z (sc), vehicle: steriod suspending solution 86 % of control and 89 % of control

CCc1nc(N)nc(N)c1-c1ccc(Cl)cc1
inactive: dose: 9.0 mg/kg/injection, schedule: Q01DX Z (ip), vehicle: carboxymethylcellulose (CMC) 92 % of control | dose: 18.0 mg/kg/injection, schedule: Q01DX Z (ip), vehicle: carboxymethylcellulose (CMC) 96 % of control | dose: 36.0 mg/kg/injection, schedule: Q01DX Z (ip), vehicle: carboxymethylcellulose (CMC) 95 % of control

CCCCNc1ncnc2c1cnn2C
inactive: dose: 31.25 mg/kg/injection, schedule: Q01DX010 (ip), vehicle: saline 98 % of control and 102 % of control | dose: 62.5 mg/kg/injection, schedule: Q01DX010 (ip), vehicle: saline 90 % of control

CN(N=O)C(N)=O
inactive: dose: 5.0 mg/kg/injection, schedule: Q01DX010 (ip), vehicle: saline 122 % of control | dose: 12.5 mg/kg/injection, schedule: Q01DX Z (ip), vehicle: saline 105 % of control | dose: 25.0 mg/kg/injection, schedule: Q01DX Z (ip), vehicle: saline 101 % of control | dose: 50.0 mg/kg/injection, schedule: Q01DX Z (ip), vehicle: saline 103 % of control

CC(CCC(C)OS(C)(=O)=O)OS(C)(=O)=O (stereo unspecified)
inactive: dose: 3.75 mg/kg/injection, schedule: Q01DX Z (ip), vehicle: carboxymethylcellulose (CMC) 86 % of control | dose: 5.0 mg/kg/injection, schedule: Q01DX Z (ip), vehicle: carboxymethylcellulose (CMC) 114 % of control | dose: 7.5 mg/kg/injection, schedule: Q01DX Z (ip), vehicle: carboxymethylcellulose (CMC) 106 % of control | dose: 10.0 mg/kg/injection, schedule: Q01DX Z (ip), vehicle: carboxymethylcellulose (CMC) 91 % of control | [2] 98 % of control | [4] 88 % of control | dose: 75.0 mg/kg/injection, schedule: Q01DX Z (ip), vehicle: carboxymethylcellulose (CMC) 98 % of control

From PubChem BioAssay AID284 (DTP/NCI, 2004)
